Consider 3 compounds from patent US20130267544A1, “Use of LP-PLA2 Inhibitors in the Treatment and Prevention of Eye Diseases” (priority 2010, published 2013).

Test [1] relates to DMHC pigs (Abeta42 in cerebral cortex). As to the kind of experiment: Abeta42 amount and distribution in cerebral cortex of DMHC pig brain. It counts as in vivo. The note with it: 10 mg/kg/day for 24 weeks. The method, then:
(§1) Yorkshire domestic farm pigs (˜25-35 kg; Archer Farms) were induced for diabetes with a single intravenous injection of 125 mg/kg streptozotocin (Mohler et al., 2008). Blood glucose and cholesterol were closely monitored. Three days after diabetes induction, a hyperlipidemic diet was used to achieve hypercholesterolemia with serum cholesterol concentrations clamped between 400 and 800 mg/dl. Because pigs have a variable serum cholesterol response to a high cholesterol diet, cholesterol concentrations were checked every two months. […]
(§2) Specimens from the brains of 29 pigs, included 3 untreated controls; 13 DMHC and 13 DMHC treated with Darapladib (Rx), were embedded in paraffin wax. Each brain specimen was serially sectioned, and the first section representing each sample was stained with Hematoxylin and Eosin (H+E) which permitted cortical from non-cortical regions based on differential staining to be determined. Full (large) face tissue blocks were used throughout this study in an effort to maximize the amount of tissue analyzed so as to favor subsequent quantification. The total areas (in sq. mm) of cortical and non-cortical brain tissue in each section were measured in H+E− stained sections using computer-assisted image analysis and Image Pro Plus software. […]

The test system of test [2] is DM/HC pigs. The test is described as follows: Behavioural observation of DM/HC pigs. It counts as in vivo, pig. The conditions noted are these: 10 mg/kg/day, vs DM/HC control animals. The method, then:
Yorkshire domestic farm pigs (˜25-35 kg; Archer Farms) were induced for diabetes with a single intravenous injection of 125 mg/kg streptozotocin (Mohler et al., 2008). Blood glucose and cholesterol were closely monitored. Three days after diabetes induction, a hyperlipidemic diet was used to achieve hypercholesterolemia with serum cholesterol concentrations clamped between 400 and 800 mg/dl. Because pigs have a variable serum cholesterol response to a high cholesterol diet, cholesterol concentrations were checked every two months. One month after DMHC induction, pigs were randomly assigned into either a control group or a treatment group receiving 10 mg/kg/d orally of the selective Lp-PLA2 inhibitor Darapladib (GlaxoSmithKline). Pigs were sacrificed after 28 weeks after induction (that is, 24 weeks after initiation of treatment). At the time of completion of the study, there were 17 pigs in the control group and 20 in the Darapladib-treated group, as three pigs in the control group were excluded from analysis because of persistently elevated cholesterol levels. […] The specific experiment was published (Wilensky et al., 2008) but no vascular leak data was presented in that publication.

For test [3], the system named is DMHC pigs (blood-brain barrier). As to the kind of experiment: IgG leak from brain blood vessels (BBB permeability) in diabetic/hypercholesterolemic pigs. It counts as in vivo, pig. The conditions noted are these: 10 mg/kg/day orally for 24 weeks. The method, then: as §1, §2
In test [4] the test system is rat brain microvascular endothelial cells co-cultured with rat brain astrocytes. The test is described as follows: Transendothelial electrical resistance of BMEC monolayers. The note with it: after addition of lysoPC to endothelial monolayers. It counts as cell-based. The method, then: (§3) Three-week-old Sprague-Dawley (SD) rats were sacrificed by cervical dislocation. After white matter, meninges and macroscopic pial vessels were removed, the gray matter was thoroughly triturated in ice-cold Dulbecco's modified Eagle's medium (DMEM). The tissue was then digested in DMEM (7 ml for 5 rat brains) containing collagenease II (1 mg/ml) and DNase I (39 U/ml) at 37° C. for 1 h with shaking speed of 130 rpm. The digested tissue was diluted with the same volume of DMEM and centrifuged at 1000 g for 8 min at 4° C. The cell pellet was re-suspended in a 20% bovine serum albumin (BSA)-DMEM solution and centrifuged at 1000 g for 20 min at 4° C. The microvessels obtained in the pellet were further digested with collagenase-dispase (1 mg/mL) and DNase I (39 U/ml) in DMEM (3 ml for 5 rat brains) for 0.5 h at 37° C. […] After 2 days of puromycin treatment, the culture medium was replaced with supplemented EBM®2 for another 2 days of maintenance before they were ready for construction of co-cultured model. […]
(§4) The astrocytes suspended in 10% FBS-DMEM were seeded on to Poly-L-lysine coated 24-well culture plate at passage between 1 and 4 at a density of 1.5×10^4/cm^2. […] Transendothelial electrical resistance (TEER) of the monolayers were determined everyday using Millicell-ERS (Millipore, Bedford, Mass.) and when the TEER >150 Ω·cm^2, the monolayer was ready for transport experiment. […]

Test [5] shares this test system. As to the kind of experiment: Permeability of Lucifer yellow in BMEC-astrocyte co-cultures. It counts as cell-based. The conditions noted are these: lysoPC 0.3-10 ug/mL added to apical side, 90 min. The method, then:
as §3, §4

Test [6] concerns rat Lp-PLA2 enzyme. The conditions noted are these: compared with Lp-PLA2 inhibitor '495.
The target in test [7] is Lp-PLA2 (Oryctolagus cuniculus, UniProt G1SE06). The conditions noted are these: rabbits on cholesterol/copper diet, 10 mg/kg daily s.c. from day 1-72. The method, then: 3-4 month SPF male New Zealand White rabbits were purchased from Covance (Denver, Pa.), individually housed and had ad libitum access to rabbit chow and water on a 12/12 h light/dark cycle. Experiments were repeated twice with animals arriving 3 weeks apart. Rabbits were randomly assigned to five treatment groups with a sample size of 8 animals per group. 32 Rabbits were placed on cholesterol/copper diet and 8 rabbits fed normal chow. Cholesterol/copper diet consisted of 160 g per day of commercially produced diet (Purina Mills High Fibre Diet) supplemented or not with 2% cholesterol. Copper sulphate (0.12 mg/l) was added to drinking water of rabbits assigned the cholesterol supplemented diet.
Sequence of Lp-PLA2 (G1SE06 22-423): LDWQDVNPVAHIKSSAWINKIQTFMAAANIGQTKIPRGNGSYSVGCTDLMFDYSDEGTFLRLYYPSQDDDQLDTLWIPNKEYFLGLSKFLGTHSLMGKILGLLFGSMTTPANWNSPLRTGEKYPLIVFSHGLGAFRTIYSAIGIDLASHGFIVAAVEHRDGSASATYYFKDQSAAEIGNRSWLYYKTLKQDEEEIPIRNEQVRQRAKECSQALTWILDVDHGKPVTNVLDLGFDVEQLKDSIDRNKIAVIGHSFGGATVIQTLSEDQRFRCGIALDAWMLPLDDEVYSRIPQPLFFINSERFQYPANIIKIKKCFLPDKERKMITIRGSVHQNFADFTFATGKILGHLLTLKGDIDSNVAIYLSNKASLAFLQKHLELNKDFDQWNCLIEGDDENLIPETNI
Animals were weighed and drug or vehicle administration delivered at 3 ml/kg to affect a 10 mg/kg dose by subcutaneous injection in the neck fold.
Six groups of animals consisting of 8 animals were assigned to the following treatment groups. Groups 1-5 were maintained on the cholesterol supplemented diet with copper sulphate in the drinking water.
Lp-PLA2 activity was measured in plasma samples collected at days 1, 29, 32 and 72 using proprietary GSK techniques.

In test [8] the test system is STZ-induced diabetic SD rats. The conditions noted are these: first study, 10 mg/kg/d i.p. from day 4. The method, then: Male SD rats, 6 weeks of age and weighing 180-200 g, were used in this study; the rats had free access to food and water and were maintained in cages in an environmentally controlled room with a 12 hour light-dark cycle. Diabetes was induced by following dosing of animals with streptozotocin (50 mg/kg/day dosed i.p. for each of the first 3 days of the protocol) in 10 mM sodium citrate-buffer pH 4.6. […] Animals which maintained an elevated blood glucose level of over 9 mM were deemed diabetic.
The retinal images were scanned by a commercially available Fourier-domain OCT (RTVue-100; version 2.1; Optovue, Inc., California, USA). Super-luminescent diode light source with a central wavelength of 840 nm and a full bandwidth of 50 nm was adapted to the OCT. The retinal thickness was accessed by the automatic software of RTVue scanner with manual adjusting. The retinal thickness was defined from layer of retinal pigment eitheluim (RPE) to retinal ganglion cell layer (GCL).
Two separate studies were conducted. Retinal images were taken on experimental day 4, 10, 13, 17, 22, 28 and 31 for the second study and day 0, 4, 7, 10, 14 and 18 for the first study. Animals were anesthetized by inhalation of 5% isoflourane and pupils were diluted with 1% tropicamide and 1% phenylephrine. Prior to OCT analysis animals were fixed on a support frame and the eye to be imaged positioned to align with the center of the scan beam perpendicular to the fundus. […] After imaging, the animals were recovered and returned to cages. Retinal thickness from six time points of OCT measurement were analyzed by repeated measures analysis of variance (ANOVA) using Prism software. […] All data were expressed as mean value±SEM.

Entries after “also recorded” stand apart in the source; their conditions may differ.

Take `CCN(CC)CCN(Cc1ccc(-c2ccc(C(F)(F)F)cc2)cc1)C(=O)Cn1c(SCc2ccc(F)cc2)nc(=O)c2c1CCC2` [Darapladib, N-[2-(diethylamino)ethyl]-2-[[(4-fluorophenyl)methyl]thio]-4,5,6,7-tetrahydro-4-oxo-N-[[4′-(trifluoromethyl)[1,1′-biphenyl]-4-yl]methyl]-1H-cyclopentapyrimidine-1-acetamide]: the “total amount of Abeta42 (Abeta42 load) in the cerebral cortex” value in test [1] was “reduced amyloid deposition; also recorded: reduced the total amount of Abeta42”. The “density of Abeta42-positive neurons in cerebral cortex” value in test [1] (entire brain) is reported as “reduction in the number (density) of Abeta42 peptide positive neurones; also recorded: levels comparable to controls”. In addition, in test [2], the “general wellness (activity and alertness)” value was “general wellness effect (increased activity and alertness)”. In addition, the “density of arteriolar leaks in the cortex (number of leaking arterioles per sq mm)” value in test [3] was “reduced somewhat”. Moreover, the “extent of vascular (BBB) leaks” value in test [3] (10 mg/kg/day) is given as “effective at reducing the extent of leaks in all vessel types; also recorded: highly efficacious effect in reducing the permeability of the BBB; also recorded: somewhat reduced”.

With lysophosphatidylcholine [lysoPC], the “transendothelial electrical resistance (TEER)” value in test [4] is reported as “reduction in the transendothelial electrical resistance”. Besides, the “transport of Lucifer yellow across endothelial monolayer” value in test [5] is recorded as “dose-dependent reduction in the transport of Lucifer yellow”.

On to `CCN1CCC(N(Cc2ccc(-c3ccc(Cl)cc3)cc2)C(=O)Cn2c(CCc3cccc(F)c3F)nc(=O)c3ccccc32)CC1.O=C(O)C(O)C(O)C(=O)O` [Lp-PLA2 inhibitor '859, N-(1-ethylpiperidin-4-yl)-2-(2-(2-(2,3-difluorophenyl)-ethyl)-4-oxo-4H-quninazolin-1-yl)-N-(4′-chloro-biphenyl-4-ylmethyl)acetamide bitartrate], for which, in test [6], the “potency as inhibitor of rat Lp-PLA2 enzyme, relative” value was “significantly less potent inhibitor”. In test [7], the “plasma Lp-PLA2 activity” value was “significantly lower levels of Lp-PLA2 activity”. Further, the “STZ-induced retinal thinning (neuroretinal thickness by OCT)” value in test [8] is reported as “not statistically significantly different from vehicle only treated animals”.
